Values after ≈ are worked out from the molar mass of the structure shown. Where a SMILES comes first, the peptide text is derived from it. [ ]: non-standard residue; d: D form. 2Thi = N[C@@H](Cc1cccs1)C(=O)O; Aib = CC(C)(N)C(=O)O

Data set [1] is described as follows: Hydrophobicity by RP-HPLC retention time. Type of data set: physicochemical. On the procedure: Each peptide was dissolved in ddH2O to a concentration of 0.5 mg/mL and then subjected to RP-HPLC on an analytical Waters XBridge C18 column (length: 250 mm, internal diameter: 4.6 mm) using 0.1% TFA in water as solvent A and 0.1% TFA in acetonitrile as solvent B. The peptides were eluted using a linear gradient as follows: 5%B to 45%B over 20 min, 45%B to 60%B over 2 min, and 60%B to 5%B over 1 min. The flow rate was 1 mL/min and the absorbance was measured at 215 nm. The retention time was recorded for each peptide ([Kim et al., 2005]).
Peptide hydrophobicity, net charge, amphipathic nature, and secondary structure are believed to be important for antimicrobial activity ([Lee et al., 2016]; [Li J. et al., 2017]). Among these, hydrophobicity has been recognized as an important factor to promote hydrophobic interaction with the hydrophobic core of the lipid bilayer, leading to membrane disruption, cytoplasm leakage, and eventual cell death ([Schmidtchen et al., 2014]). However, the actual hydrophobicity in liquid environment has been reported to usually show disagreement with the theoretical mean hydrophobicity ([Kim et al., 2005]). […] More hydrophobic compounds are typically eluted later from the column. […]

The test system of another data set is S. aureus ATCC 25923. Put plainly: microbe, parasite or virus in culture. The class given is cell-based, Staphylococcus aureus. Conditions: ATCC 25923, 20 h. In outline: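 Inocula were set to 0.5 McFarland and diluted to ~5 × 10^5 CFU/mL (bacteria, MH broth) or 0.5 × 10^3 to 2.5 × 10^3 CFU/mL (yeast, RPMI 1640). Peptide twofold dilutions were added, plates incubated 20 h at 37°C or 48 h at 35°C, then scored by eye.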

The next data set concerns BALB/c mice. Put plainly: In vivo acute toxicity, single injection. The settings on record: monitored 24 h. Further details: species or system mouse. How it is done: Six-week-old mice (approximate weight: 18–20 g, SFP grade) were bred and maintained under specific pathogen-free conditions on a 12 h light/dark cycle. The peptides were dissolved in PBS (pH 7.4) and three mice were used for each dose. As a control, colistin was administered in a similar manner. The mice were monitored for 24 h and mice were weighed at the end of the experiment. The procedure was evaluated and approved by the Ethical Committee of Experimental Animals of the Chia Tai Tianqing Pharmaceutical Group in August 2019.
As summarized in Figure 6, a toxicity score was assigned as follows: no abnormalities = without signs; mild depression, poor motility, purple-black tail, and recovery in 1 h = mild signs; serious depression and poor motility even under stimulation = manifest signs; sudden death within 10 min = died of toxic effects.

The test system of data set [2] is proteases secreted by A. baumannii ATCC 19606. In words: in vitro. Conditions: Acinetobacter baumannii, A. baumannii ATCC 19606 culture supernatant, pH 8. The gist of the method:
(§1)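 Cell-free culture supernatants (overnight, 37°C; MH broth for bacteria, 2% tryptone/2% dextrose for yeast) were centrifuged, adjusted to pH 8.0 and 0.22 μm filtered. Peptides at 0.5 mg/mL were incubated in supernatant 24 h at 37°C; remaining intact peptide measured by RP-HPLC, with peptide-free supernatant as negative control.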

The test system of data set [3] is proteases secreted by P. aeruginosa ATCC 27853. Put plainly: in vitro. Conditions: Pseudomonas aeruginosa, P. aeruginosa ATCC 27853 culture supernatant, pH 8. The gist of the method: as §1
Data set [4] has as its system proteases secreted by C. albicans ATCC 10231. In words: in vitro. The settings on record: C. albicans ATCC 10231 culture supernatant (2% tryptone/2% dextrose), pH 8.0, 0.22 μm filtered; peptide 0.5 mg/mL; 37°C, 24 h; RP-HPLC. In outline: as §1
Data set [5] concerns all of the bacterial and fungal supernatants tested. Conditions: pH 8.0, peptide 0.5 mg/mL, 37°C, 24 h, RP-HPLC. How it is done: The stabilities of the peptides toward proteases secreted by E. coli ATCC 25922, P. aeruginosa ATCC 27853, A. baumannii ATCC 19606, S. aureus ATCC 25923, and C. albicans ATCC 10231 were also examined. Microbial supernatants were prepared by resuspending single colonies of each strain in 20 mL of an appropriate culture medium followed by incubation at 37°C overnight. MH broth and 2% tryptone/2% dextrose were used as the culture media for bacteria and yeast, respectively. Each culture was then centrifuged at 12,000 × g for 10 min and the supernatant was adjusted to pH 8.0 with HCl or NaOH and then filtered through a 0.22 μm sterile filter membrane ([Zaet et al., 2017]). The peptides were then dissolved in the filtered supernatants to a concentration of 0.5 mg/mL, and the peptide-free supernatants were used as negative controls. The samples were incubated at 37°C for 24 h in a water bath and then analyzed by RP-HPLC as described above.

Regarding `CC(C)C[C@H](NC(=O)[C@H](Cc1ccc(O)cc1)NC(=O)[C@H](CCCCN)NC(=O)[C@H](CC(C)C)NC(=O)[C@H](CC(C)C)NC(=O)[C@H](CCCCN)NC(=O)[C@H](CCCCN)NC(=O)[C@H](Cc1ccccc1)NC(=O)[C@H](CC(C)C)NC(=O)[C@H](CCCNC(=N)N)NC(=O)C(C)(C)N)C(=O)N[C@@H](CCCNC(=N)N)C(=O)N[C@@H](CCCCN)C(=O)N[C@@H](Cc1cccs1)C(N)=O` [UP09] (H-[Aib]RLFKKLLKYLRK[2Thi]-NH2; N-terminus assumed), the “relative retention time (RRT) with respect to Pep05” value in data set [1] (RP-HPLC retention time of peptide / that of Pep05, C18, acetonitrile/water/TFA) is recorded as 1.08. In addition, in data set [1] (chromatographic, Waters XBridge C18 250 x 4.6 mm, 0.5 mg/mL in ddH2O, A 0.1% TFA/water, B 0.1% TFA/acetonitrile, 5-45%B over 20 min, 1 mL/min, UV 215 nm), the “RT (RP-HPLC retention time, measure of hydrophobicity)” value is 16.606 min. For the same compound, the MIC in the data set on S. aureus ATCC 25923 worked out at 1 µg/mL (≈ 0.542 µM). Also, in the data set on BALB/c mice (single i.v. dose, all tested doses (5, 10, 20 mg/kg), three mice per dose), the “signs of toxicity after intravenous injection” value is “Mild depression and purple-black tails”.

The compound `CC(C)C[C@H](NC(=O)[C@H](CC(C)C)NC(=O)[C@@H](CCCCN)NC(=O)[C@@H](CCCCN)NC(=O)[C@H](Cc1ccccc1)NC(=O)[C@H](CC(C)C)NC(=O)[C@@H](CCCNC(=N)N)NC(=O)[C@H](N)CCCCN)C(=O)N[C@H](CCCCN)C(=O)N[C@@H](Cc1ccc(O)cc1)C(=O)N[C@@H](CC(C)C)C(=O)N[C@H](CCCNC(=N)N)C(=O)N[C@H](CCCCN)C(=O)N[C@@H](Cc1ccccc1)C(N)=O` [DP06] (H-[dK][dR]LF[dK][dK]LL[dK]YL[dR][dK]F-NH2) displayed an MIC in the data set on S. aureus ATCC 25923 of 0.5 µg/mL (≈ 0.266 µM). The “signs of toxicity after intravenous injection” value is on record as “sudden death within 1 min of injection” in the data set on BALB/c mice (single i.v. dose 5 mg/kg, three mice) and “sudden death within 1 min of injection” with BALB/c mice (single i.v. dose 10 mg/kg, three mice). Also, the amount remaining at 24 h, 0.5 mg/mL in data set [2] stood at 63.5 ± 3.28%; in data set [3] it was 61.2 ± 6.06%. For the same compound, in data set [4], the “Percent of remained peptide amount after incubation (%)” value worked out at 62.07 ± 3.27 %. In data set [5], the “original peptide remaining in microbial supernatants” value was “more than 60%”.

The values above are taken from publication PMC7688903 (Frontiers in Microbiology, 2020).
